Measurements reported in patent US20080234345A1, “METHOD FOR REDUCING OR ALLEVIATING INFLAMMATION IN THE DIGESTIVE TRACT” (Gene Logic Inc., priority 2006, published 2008).

Tested on: DSS-induced colitis in Balb/c mice
Experiment: DSS-induced colitis in Balb/c mice (Example 7)
Assay type: in vivo
Conditions: s.c. b.i.d., GL1001 300 mg/kg
Description: A study was designed with six groups of Balb/c mice: naïve control, DSS followed by vehicle, DSS followed by GL1001 30 mg/kg/day, DSS followed by GL1001 100 mg/kg/day, DSS followed by GL1001 300 mg/kg/day, and DSS followed by sulfasalazine 150 mg/kg/day. Administration of DSS was via drinking water, from day 1 to day 6 of the study. […] Administration of vehicle, GL1001 and sulfasalazine was subcutaneous, twice daily, from day 6 until termination of the study (day 16).
Body weight of each animal was measured at days 1, 3 and 5 (pre-initiation of GL1001 or sulfasalazine treatment) and at days 7, 9, 11 and 13 (post-initiation of GL1001 or sulfasalazine treatment). On these same days, disease activity measurements were recorded, including: • (a) rectal prolapse (0=no prolapse, 1=partial prolapse, 2=moderate prolapse, 3=full prolapse); • (b) stool consistency (0=solid pellet, 1=semi-solid, 2=soft stool, 3=diarrhea); and • (c) fecal occult blood (0=no blood present, 1=occult blood, 2=gross blood).
At termination of the study, colon length was determined and histological analysis was conducted as in Example 6.

CC(C)C[C@H](N[C@@H](Cc1cncn1Cc1cc(Cl)cc(Cl)c1)C(=O)O)C(=O)O [GL1001, (S,S)-2-[1-carboxy-2-[3-(3,5-dichlorobenzyl)-3H-imidazol-4-yl]-ethylamino]-4-methylpentanoic acid]
inhibits reduction: reduction in colon length (sulfasalazine 150 mg/kg)
reduces: fecal occult blood (day 7, sulfasalazine 150 mg/kg) | stool consistency (day 7, sulfasalazine 150 mg/kg) | percentage weight loss (day 9, sulfasalazine 150 mg/kg) | rectal prolapse (day 9, sulfasalazine 150 mg/kg) | distal colon erosion score | distal colon crypt score (sulfasalazine 150 mg/kg) | distal colon inflammation score (sulfasalazine 150 mg/kg) | distal colon total histopathology score (sulfasalazine 150 mg/kg)
